The values below come from US20240140957A1, “BRIDGED COMPOUNDS AS KRAS G12D INHIBITOR AND DEGRADER AND THE USE THEREOF” (BeiGene Switzerland GmbH, priority 2021, published 2024).

This test deals with GDP-loaded KRAS G12D (Homo sapiens, UniProt P01116, G12D). Kind of test: KRAS G12D Probe Displacement Assay. The test is classed as binding. As to conditions: KRAS G12D 0.5 nM, biotinylated probe 2 4 nM; Table 6 letters; read-out: KRAS G12D Probe Displacement Assay IC50 (class).
GDP-loaded KRAS G12D, sequence (P01116 1-188 isoform P01116-2 G12D): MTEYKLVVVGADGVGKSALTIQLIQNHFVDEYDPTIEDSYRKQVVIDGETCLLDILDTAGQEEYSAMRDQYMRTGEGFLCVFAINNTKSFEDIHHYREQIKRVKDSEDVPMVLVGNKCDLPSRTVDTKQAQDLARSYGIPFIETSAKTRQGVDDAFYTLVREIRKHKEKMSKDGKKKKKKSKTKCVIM

The term IC50 denotes the point on the concentration scale where inhibition reaches its midpoint. With `Cc1cc(N)nc(-c2c(Cl)cc3c(N4CC5CCC(C4)N5)nc(OCC4(C)CNC(=O)C4)nc3c2F)c1C(F)(F)F` (centres unmarked) [Example E208, 4-(((7-(6-amino-4-methyl-3-(trifluoromethyl)pyridin-2-yl)-4-(3,8-diazabicyclo[3.2.1]octan-3-yl)-6-chloro-8-fluoroquinazolin-2-yl)oxy)methyl)-4-methylpyrrolidin-2-one], the IC50 is less than 50 nM. To `Nc1nc2c(-c3c(C(F)(F)F)cc4c(N5CC6CCC(C5)N6)nc(OCC5CC6CCC(C5)O6)nc4c3F)ccc(F)c2s1` (centres unmarked) [Example E163, 4-(2-((8-oxabicyclo[3.2.1]octan-3-yl)methoxy)-4-(3,8-diazabicyclo[3.2.1]octan-3-yl)-8-fluoro-6-(trifluoromethyl)quinazolin-7-yl)-7-fluorobenzo[d]thiazol-2-amine] belongs less than 50 nM. In the case of `COC1CC(COc2nc(N3CC4CCC(C3)N4)c3cc(C(F)(F)F)c(-c4ccc(F)c5sc(N)nc45)c(F)c3n2)C1` (centres unmarked) [Example E150, 4-(4-(3,8-diazabicyclo[3.2.1]octan-3-yl)-8-fluoro-2-((3-methoxycyclobutyl)methoxy)-6-(trifluoromethyl)quinazolin-7-yl)-7-fluorobenzo[d]thiazol-2-amine], the IC50 was less than 50 nM. To `Nc1nc2c(-c3c(C(F)(F)F)cc4c(N5CC6CCC(C5)N6)nc(OCC5(CO)CCCC5)nc4c3F)ccc(F)c2s1` [Example E190, (1-(((7-(2-amino-7-fluorobenzo[d]thiazol-4-yl)-4-(3,8-diazabicyclo[3.2.1]octan-3-yl)-8-fluoro-6-(trifluoromethyl)quinazolin-2-yl)oxy)methyl)cyclopentyl)methanol] belongs less than 50 nM; to `Cc1cc(N)nc(-c2c(Cl)cc3c(N4CC5CCC(C4)N5)nc(OCC4(C)CCC(=O)N4)nc3c2F)c1C(F)(F)F` (centres unmarked) [Example E207, 5-(((7-(6-amino-4-methyl-3-(trifluoromethyl)pyridin-2-yl)-4-(3,8-diazabicyclo[3.2.1]octan-3-yl)-6-chloro-8-fluoroquinazolin-2-yl)oxy)methyl)-5-methylpyrrolidin-2-one], less than 50 nM.

Take `COCC1CCC2(COc3nc(N4CC5CCC(C4)N5)c4cc(C(F)(F)F)c(-c5ccc(F)c6sc(N)nc56)c(F)c4n3)CCCN12` (centres unmarked) [Example E131, 4-(4-(3,8-diazabicyclo[3.2.1]octan-3-yl)-8-fluoro-2-((3-(methoxymethyl)tetrahydro-1H-pyrrolizin-7a(5H)-yl)methoxy)-6-(trifluoromethyl)quinazolin-7-yl)-7-fluorobenzo[d]thiazol-2-amine]: the IC50 is less than 50 nM. To `Nc1nc2c(-c3c(C(F)(F)F)cc4c(N5CC6CCC(C5)N6)nc(OCC5CC(O)C5)nc4c3F)ccc(F)c2s1` (centres unmarked) [Example E173] belongs less than 50 nM.

On to `Nc1nc2c(-c3c(C(F)(F)F)cc4c(N5[C@@H]6CC[C@H]5C(NCCC(F)F)C6)nc(OC[C@@]56CCCN5C[C@H](F)C6)nc4c3F)ccc(F)c2s1` (stereo partly drawn) [Example E95, 4-(4-((1S,4R)-2-((3,3-difluoropropyl)amino)-7-azabicyclo [2.2.1]heptan-7-yl)-8-fluoro-2-(((2R,7As)-2-fluorotetrahydro-1H-pyrrolizin-7a(5H)-yl)methoxy)-6-(trifluoromethyl)quinazolin-7-yl)-7-fluorobenzo[d]thiazol-2-amine], for which the IC50 was less than 50 nM.

`Cc1cc(N)nc(-c2c(C(F)F)cc3c(N4CC5CCC(C4)N5)nc(OC[C@@]45CCCN4C[C@H](F)C5)nc3c2F)c1C(F)(F)F` [Example E100, 6-(4-(3,8-diazabicyclo[3.2.1]octan-3-yl)-6-(difluoromethyl)-8-fluoro-2-(((2R,7aS)-2-fluorotetrahydro-1H-pyrrolizin-7a(5H)-yl)methoxy)quinazolin-7-yl)-4-methyl-5-(trifluoromethyl)pyridin-2-amine]: the IC50 was less than 50 nM. As for `COC[C@@]1(COc2nc(N3C4CNCC3COC4)c3cc(F)c(-c4nc(N)cc(C)c4C(F)(F)F)c(F)c3n2)C[C@@H](F)CN1C` [Example E137, 6-(4-(3-oxa-7,9-diazabicyclo[3.3.1]nonan-9-yl)-6,8-difluoro-2-(((2R,4R)-4-fluoro-2-(methoxymethyl)-1-methylpyrrolidin-2-yl)methoxy)quinazolin-7-yl)-4-methyl-5-(trifluoromethyl)pyridin-2-amine], the IC50 fell in the range of 100 to 1000 nM. Consider `Cc1cc(N)nc(-c2c(Cl)cc3c(N4CC5CCC(C4)N5)nc(OCC4(CO)CCOCC4)nc3c2F)c1C(F)(F)F` [Example E196, (4-(((7-(6-amino-4-methyl-3-(trifluoromethyl)pyridin-2-yl)-4-(3,8-diazabicyclo[3.2.1]octan-3-yl)-6-chloro-8-fluoroquinazolin-2-yl)oxy)methyl)tetrahydro-2H-pyran-4-yl)methanol], for which the IC50 is less than 50 nM. To `Nc1nc2c(-c3c(C(F)(F)F)cc4c(N5CC6CCC(C5)N6)nc(OCC56CCC(CC5)OC6)nc4c3F)ccc(F)c2s1` [Example E165, 4-(2-((2-oxabicyclo[2.2.2]octan-4-yl)methoxy)-4-(3,8-diazabicyclo[3.2.1]octan-3-yl)-8-fluoro-6-(trifluoromethyl)quinazolin-7-yl)-7-fluorobenzo[d]thiazol-2-amine] belongs less than 50 nM; to `CN1CCCC(C#N)(COc2nc(N3CC4CCC(C3)N4)c3cc(Cl)c(-c4ccc(F)c5sc(N)nc45)c(F)c3n2)C1` (centres unmarked) [Example E178, 3-(((7-(2-amino-7-fluorobenzo[d]thiazol-4-yl)-4-(3,8-diazabicyclo [3.2.1]octan-3-yl)-6-chloro-8-fluoroquinazolin-2-yl)oxy)methyl)-1-methylpiperidine-3-carbonitrile], less than 50 nM. For `CO[C@@H]1CC[C@H]1COc1nc(N2CC3CCC(C2)N3)c2cc(C(F)(F)F)c(-c3ccc(F)c4sc(N)nc34)c(F)c2n1` [Example E168, 4-(4-(3,8-diazabicyclo[3.2.1]octan-3-yl)-8-fluoro-2-(((1S,2R)-2-methoxycyclobutyl)methoxy)-6-(trifluoromethyl)quinazolin-7-yl)-7-fluorobenzo[d]thiazol-2-amine], the IC50 is less than 50 nM. As for `Nc1nc2c(-c3c(C(F)(F)F)cc4c(N5CC6CCC(C5)N6)nc(OC5CCOC5)nc4c3F)ccc(F)c2s1` (centres unmarked) [Example E143], the IC50 is less than 50 nM.

Turning to `CC(CO)COc1nc(N2CC3CCC(C2)N3)c2cc(C(F)(F)F)c(-c3ccc(F)c4sc(N)nc34)c(F)c2n1` (centres unmarked) [Example E142, 3-((7-(2-amino-7-fluorobenzo[d]thiazol-4-yl)-4-(3,8-diazabicyclo [3.2.1]octan-3-yl)-8-fluoro-6-(trifluoromethyl)quinazolin-2-yl)oxy)-2-methylpropan-1-ol], the IC50 was less than 50 nM. `Cc1cc(O)cc(-c2c(Cl)cc3c(N4CC5CCC(C4)N5)nc(OC[C@@]45CCCN4C[C@H](F)C5)nc3c2F)c1C(F)(F)F` [Example E114, 3-(4-(3,8-diazabicyclo[3.2.1]octan-3-yl)-6-chloro-8-fluoro-2-(((2R,7aS)-2-fluorotetrahydro-1H-pyrrolizin-7a(5H)-yl)methoxy)quinazolin-7-yl)-5-methyl-4-(trifluoromethyl)phenol]: the IC50 is less than 50 nM.
